Laboratory results as given in patent publication US7179808B2 (Janssen Pharmaceutica N.V., priority 2002, dated 2007).
pIC50: −log10 of the molar value. Counter-ions that a name gives are not always drawn.

Columns and labels:
[1] = molecular target: T1, NADPH-oxidase (Homo sapiens, UniProt P04839); assay: Oxidase Inhibition Assay (PMA-stimulated superoxide-mediated reduction of Cytochrome c, absorbance at 550 nm); type: cell-based; conditions: for pIC50: human neutrophils, 0.5 μM PMA, Cytochrome c reduction at 550 nm
T1 construct: endogenous in cells; host or cells: human neutrophils isolated from the buffy coat of one unit of blood
T1 sequence (P04839 1-570): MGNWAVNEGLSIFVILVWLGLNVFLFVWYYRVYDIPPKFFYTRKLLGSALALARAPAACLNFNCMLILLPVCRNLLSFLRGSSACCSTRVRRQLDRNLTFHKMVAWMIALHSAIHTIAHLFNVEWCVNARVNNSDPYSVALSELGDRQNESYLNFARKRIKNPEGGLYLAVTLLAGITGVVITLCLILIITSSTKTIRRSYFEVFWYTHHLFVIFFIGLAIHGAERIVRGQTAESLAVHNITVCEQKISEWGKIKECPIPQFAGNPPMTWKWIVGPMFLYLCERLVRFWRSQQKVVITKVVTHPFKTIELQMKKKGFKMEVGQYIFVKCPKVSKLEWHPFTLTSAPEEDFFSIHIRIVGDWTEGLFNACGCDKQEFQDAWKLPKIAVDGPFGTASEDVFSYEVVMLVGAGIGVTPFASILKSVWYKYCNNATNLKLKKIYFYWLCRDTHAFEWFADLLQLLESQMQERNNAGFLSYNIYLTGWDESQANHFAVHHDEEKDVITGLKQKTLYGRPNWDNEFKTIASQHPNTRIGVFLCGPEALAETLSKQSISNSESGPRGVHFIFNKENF
T1 sequence (P13498 1-195 partner): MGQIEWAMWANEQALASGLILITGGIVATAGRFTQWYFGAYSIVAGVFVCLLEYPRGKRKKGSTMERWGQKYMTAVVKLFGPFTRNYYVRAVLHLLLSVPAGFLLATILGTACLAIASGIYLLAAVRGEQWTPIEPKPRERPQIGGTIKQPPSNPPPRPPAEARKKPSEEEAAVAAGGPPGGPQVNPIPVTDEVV
Method: Whole cells (human neutrophils) are incubated with a pro-inflammatory agonist phorbol myristate acetate (PMA) in the presence or absence of test compound to measure the superoxide-mediated reduction of Cytochrome c at 550 nm. Inhibition of the oxidase is determined by a decreased absorbance at 550 nm, in response to test compound, relative to the absorbance seen with a vehicle control.
The buffy coat from one unit of blood is split evenly into four 50 mL tubes. To each tube 30 mL 3% Dextran (in 0.9% NaCl) is added and the tubes are inverted to mix. Tubes are allowed to sit undisturbed for 25 minutes. The resulting supernatant is recovered into four fresh tubes and centrifuged for 10 minutes at 600×g, 4° C. The supernatant is discarded and pellets are resuspended in 35 mL 0.9% saline. 10 mL Ficoll-Paque PLUS (Pharmacia Biotech AB) is layered beneath the cell suspension and centrifuged at 600×g for 40 minutes at room temperature. The supernatant is again discarded and tubes are tapped to loosen the resulting pellets. 20 mL 0.2% ice cold saline is added for 30 seconds followed by 20 mL 1.6% ice cold saline to lyse the remaining erythrocytes in the pellets. The pellets are centrifuged for 10 minutes at 600×g, 4° C., and the supernatant is discarded. The neutrophil pellets are resuspended in HBSS-glucose buffer (1 mg/mL), adding 2.5 mL to each tube for a total volume of 10 mL. The cell suspension is then counted on a hemocytometer.
The cell suspension is diluted to a concentration of 5×10^6/mL in HBSS-glucose and treated with 1 μg/mL Cytochalasin B (5 mg/mL DMSO) for 10 minutes at 37° C. in a shaking water bath. Cells are diluted to 6×10^5 cells/mL in 92 μM Cytochrome c for a final concentration of 5×10^4 cells/well.
The NADPH-oxidase assay is run on a Biomek 2000 workstation. The workstation adds 2.5 μl compound per well from source plates plus 12.5 μL per well 4 μM PMA (agonist). This volume is brought up to 100 μL total per well in the assay plates upon the addition of the prepared cells (85 μL). The final concentration of drug is 25 μM and PMA is 0.5 μM under these conditions.
The QC curve is a dose-responsive curve (from about 31.25 nM to about 4000 nM) for competitive binding against a known oxidase inhibitor such as DPI (diphenylene iodonium chloride). The following format was used for each compound tested:
The plates are incubated for 1 hour at 37° C. without CO2. The plates are then incubated at room temperature for 30 minutes and the absorbance is read at 550 nm.

[2] = test system: mice with potassium peroxochromate arthritis; conditions: cited from earlier work
[3] = test system: ROS; conditions: human patients with rheumatoid arthritis and osteoarthritis, pharmacological doses; cited from earlier work

melting point [°C]	pIC50 [1]	Compound	other results
		c1ccc2c(c1)[I+]c1ccccc1-2 [DPI, diphenylene iodoniumchloride]	inhibition at 10 µM ([1]; QC wells G–H, 2.5 μL of 10 μM DPI, at 250 nm (so in the source), agonist added): ~70%; inhibition of the arthritis ([2]; 10 mmol/kg): Complete inhibition; inhibited the arthritis ([2]; daily doses of 2.8 μmol/kg): 50%
94 to 94.5	7.40	Clc1ccc(-c2csc(COc3cccc(CNC4CCCC4)c3)n2)cc1 [Cpd 3, 3-[[4-(4-chlorophenyl)-2-thiazolyl]methoxy]-N-cyclopentyl-benzenemethanamine]	
	5.83	Clc1ccc(-c2csc(COc3cccc(CNCCN4CCOCC4)c3)n2)cc1 [Cpd 7]	
80.5 to 81.5	5.46	Clc1ccc(-c2csc(COc3cccc(CNC4CC4)c3)n2)cc1 [Cpd 5, 3-[[4-(4-chlorophenyl)-2-thiazolyl]methoxy]-N-cyclopropyl-benzenemethanamine]	
85 to 86	6.89	Clc1ccc(-c2csc(COc3cccc(CNC4CCCCC4)c3)n2)cc1 [Cpd 4, 3-[[4-(4-chlorophenyl)-2-thiazolyl]methoxy]-N-cyclohexyl-benzenemethanamine]	
125.5 to 126.5	6.15	Clc1ccc(-c2csc(COc3ccc(CNC4CCCC4)cc3)n2)cc1 [Cpd 10, 4-[[4-(4-chlorophenyl)-2-thiazolyl]methoxy]-N-cyclopentyl-benzenemethanamine]	
63.5 to 64.5	5.78	CCCNCc1cccc(OCc2nc(-c3ccc(Cl)cc3)cs2)c1 [Cpd 1, 3-[[4-(4-chlorophenyl)-2-thiazolyl]methoxy]-N-propyl-benzenemethanamine]	
		CN1C(C(=O)Nc2ccccn2)=C(O)c2ccccc2S1(=O)=O [Piroxicam]	reduce levels of ROS [3]: 25%
117 to 118.5	5.72	NCc1cccc(OCc2nc(-c3ccc(Cl)cc3)cs2)c1 [Cpd 11, 3-[[4-(4-chlorophenyl)-2-thiazolyl]methoxy]-benzenemethanamine]	
63.5 to 64.5		CCCNCc1ccc(OCc2nc(-c3ccc(Cl)cc3)cs2)cc1 [Cpd 1a, 4-[[4-(4-chlorophenyl)-2-thiazolyl]methoxy]-N-propyl-benzenemethanamine]	
	6.52	COc1ccc2[nH]cc(CCNCc3cccc(OCc4nc(-c5ccc(Cl)cc5)cs4)c3)c2c1 [Cpd 9, N-[[3-[[4-(4-chlorophenyl)-2-thiazolyl]methoxy]phenyl]methyl]-5-methoxy-1H-indole-3-ethanamine.HCl]	
86 to 88		CCCCNCc1cccc(OCc2nc(-c3ccc(Cl)cc3)cs2)c1 [Cpd 2, 3-[[4-(4-chlorophenyl)-2-thiazolyl]methoxy]-N-(3-methylpropyl)-benzenemethanamine]	

Compound	melting point [°C]	pIC50 [1]	other results
CC(C)CNCc1cccc(OCc2nc(-c3ccc(Cl)cc3)cs2)c1		5.60	
4-(4-chlorophenyl)-2-[[3-[(5-methyl-2-furanyl)methyl]phenoxy]methyl]-thiazole [Cpd 8]		6.15	
CN1CCCC1CNCc1cccc(OCc2nc(-c3ccc(Cl)cc3)cs2)c1 (centres unmarked) [Cpd 6, N-[[3-[[4-(4-chlorophenyl)-2-thiazolyl]methoxy]phenyl]methyl]-1-methyl-2-pyrrolidinemethanamine.(HCl)2]		5.00	
